In PubChem BioAssay AID1963845 (Molecular Pharmacology Branch, DTP, NCI, 2024):

Test system: 429239-143-T-J1-PDC complex spheroid viability
Experiment: Anticancer human tumor 429239-143-T-J1-PDC patient-derived small cell lung carcinoma cell line growth inhibition [POLQ]
Conditions: for IC50: curve of first compound; for viability, T/C: stronger effect = lower value
Procedure, shortened: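 PDC + HUVEC + MSC complex spheroids; POLQ inhibitors ± partner drugs; top conc. at/near clinical Cmax, else 10 microM (SN-38 1 microM), half-log dilutions; 37 degrees C, 5% CO2.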

[1] = second compound 0.0316 µM, first compound 0.0316 µM
[2] = second compound 0.0316 µM, first compound 0.1 µM
[3] = second compound 0.0316 µM, first compound 0.316 µM
[4] = second compound 0.0316 µM, first compound 1 µM
[5] = second compound 0.0316 µM, first compound 3.16 µM
[6] = second compound 0.0316 µM, first compound 10 µM
[7] = second compound 0.1 µM, first compound 0.0316 µM
[8] = second compound 0.1 µM, first compound 0.1 µM
[9] = second compound 0.1 µM, first compound 0.316 µM
[10] = second compound 0.1 µM, first compound 1 µM
[11] = second compound 0.1 µM, first compound 3.16 µM
[12] = second compound 0.1 µM, first compound 10 µM
[13] = second compound 0.316 µM, first compound 0.0316 µM
[14] = second compound 0.316 µM, first compound 0.1 µM
[15] = second compound 0.316 µM, first compound 0.316 µM
[16] = second compound 0.316 µM, first compound 1 µM
[17] = second compound 0.316 µM, first compound 3.16 µM
[18] = second compound 0.316 µM, first compound 10 µM
[19] = second compound 1 µM, first compound 0.0316 µM
[20] = second compound 1 µM, first compound 0.1 µM
[21] = second compound 1 µM, first compound 0.316 µM
[22] = second compound 1 µM, first compound 1 µM
[23] = second compound 1 µM, first compound 3.16 µM
[24] = second compound 1 µM, first compound 10 µM
[25] = second compound 3.16 µM, first compound 0.0316 µM
[26] = second compound 3.16 µM, first compound 0.1 µM
[27] = second compound 3.16 µM, first compound 0.316 µM
[28] = second compound 3.16 µM, first compound 1 µM
[29] = second compound 3.16 µM, first compound 3.16 µM
[30] = second compound 3.16 µM, first compound 10 µM
[31] = second compound 10 µM, first compound 0.0316 µM
[32] = second compound 10 µM, first compound 0.1 µM
[33] = second compound 10 µM, first compound 0.316 µM
[34] = second compound 10 µM, first compound 1 µM
[35] = second compound 10 µM, first compound 3.16 µM
[36] = second compound 10 µM, first compound 10 µM
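Further: luminescence signal used as surrogate measure of viable cells; spheroids exposed to compounds for seven days before readout.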
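Wherever viability, T/C is given: 100% = DMSO vehicle control viability as luminescence relative to vehicle.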

C=CC(=O)N1CCN(c2nc(=O)n(-c3c(C)ccnc3C(C)C)c3nc(-c4c(O)cccc4F)c(F)cc23)C(C)C1 (stereo unspecified) + Cc1cccc(N(C)C(=O)C2C(O)CCN2c2nc(C)cc(C(F)(F)F)c2C#N)c1
IC50 (second compound 0.0316 µM): > 10000 nM
IC50 (second compound 0.1 µM): > 10000 nM
IC50 (second compound 0.316 µM): > 10000 nM
IC50 (second compound 1 µM): > 10000 nM
IC50 (second compound 3.16 µM): > 10000 nM
IC50 (second compound 10 µM): > 10000 nM
viability, T/C [1]: 97.2%
viability, T/C [2]: 85%
viability, T/C [3]: 102%
viability, T/C [4]: 97.5%
viability, T/C [5]: 96%
viability, T/C [6]: 98.7%
viability, T/C [7]: 93.2%
viability, T/C [8]: 96.8%
viability, T/C [9]: 108%
viability, T/C [10]: 89.8%
viability, T/C [11]: 92.9%
viability, T/C [12]: 109%
viability, T/C [13]: 105%
viability, T/C [14]: 94.3%
viability, T/C [15]: 107%
viability, T/C [16]: 97.8%
viability, T/C [17]: 108%
viability, T/C [18]: 116%
viability, T/C [19]: 88.8%
viability, T/C [20]: 93.4%
viability, T/C [21]: 104%
viability, T/C [22]: 88.5%
viability, T/C [23]: 103%
viability, T/C [24]: 104%
viability, T/C [25]: 95.5%
viability, T/C [26]: 88%
viability, T/C [27]: 86.6%
viability, T/C [28]: 101%
viability, T/C [29]: 104%
viability, T/C [30]: 122%
viability, T/C [31]: 98.8%
viability, T/C [32]: 85.3%
viability, T/C [33]: 94.4%
viability, T/C [34]: 97.9%
viability, T/C [35]: 102%
viability, T/C [36]: 100%

CC1COCCN1c1cc(C2(S(C)(=N)=O)CC2)nc(-c2ccnc3[nH]ccc23)n1 (stereo unspecified) + COC1C(OC(N)=O)C(O)C(Oc2ccc3c(O)c(NC(=O)c4ccc(O)c(CC=C(C)C)c4)c(=O)oc3c2C)OC1(C)C
IC50 (second compound 0.0316 µM): 2270 nM
IC50 (second compound 0.1 µM): 2120 nM
IC50 (second compound 0.316 µM): 1990 nM
IC50 (second compound 1 µM): 2430 nM
IC50 (second compound 3.16 µM): 1880 nM
IC50 (second compound 10 µM): 2580 nM
viability, T/C [1]: 116%
viability, T/C [2]: 100%
viability, T/C [3]: 89.4%
viability, T/C [4]: 79.4%
viability, T/C [5]: 35.6%
viability, T/C [6]: 15.6%
viability, T/C [7]: 107%
viability, T/C [8]: 105%
viability, T/C [9]: 96.2%
viability, T/C [10]: 73.5%
viability, T/C [11]: 37.6%
viability, T/C [12]: 15.1%
viability, T/C [13]: 103%
viability, T/C [14]: 94.3%
viability, T/C [15]: 100%
viability, T/C [16]: 61.1%
viability, T/C [17]: 42.4%
viability, T/C [18]: 17.3%
viability, T/C [19]: 120%
viability, T/C [20]: 94.1%
viability, T/C [21]: 95.3%
viability, T/C [22]: 88.1%
viability, T/C [23]: 38.1%
viability, T/C [24]: 21.4%
viability, T/C [25]: 90.6%
viability, T/C [26]: 109%
viability, T/C [27]: 100%
viability, T/C [28]: 72.6%
viability, T/C [29]: 31.7%
viability, T/C [30]: 18.8%
viability, T/C [31]: 89.8%
viability, T/C [32]: 103%
viability, T/C [33]: 106%
viability, T/C [34]: 72.1%
viability, T/C [35]: 47%
viability, T/C [36]: 16.6%

CCc1cc2c(N3CCc4c(cc(Cn5ccnc5)cc4-c4cn(C)nc4C(F)(F)F)C3=O)cc(C)nc2c(OC)n1 + COC1C(OC(N)=O)C(O)C(Oc2ccc3c(O)c(NC(=O)c4ccc(O)c(CC=C(C)C)c4)c(=O)oc3c2C)OC1(C)C
IC50 (second compound 0.0316 µM): 1470 nM
IC50 (second compound 0.1 µM): 2240 nM
IC50 (second compound 0.316 µM): 1390 nM
IC50 (second compound 1 µM): 1990 nM
IC50 (second compound 3.16 µM): 1410 nM
IC50 (second compound 10 µM): 715 nM
viability, T/C [1]: 85.5%
viability, T/C [2]: 85.1%
viability, T/C [3]: 70.6%
viability, T/C [4]: 50%
viability, T/C [5]: 46.1%
viability, T/C [6]: 29%
viability, T/C [7]: 94.5%
viability, T/C [8]: 88.7%
viability, T/C [9]: 70%
viability, T/C [10]: 64.3%
viability, T/C [11]: 43.4%
viability, T/C [12]: 33.4%
viability, T/C [13]: 95.2%
viability, T/C [14]: 95%
viability, T/C [15]: 65.1%
viability, T/C [16]: 57.8%
viability, T/C [17]: 41.5%
viability, T/C [18]: 40.4%
viability, T/C [19]: 90.2%
viability, T/C [20]: 76%
viability, T/C [21]: 65.8%
viability, T/C [22]: 69.1%
viability, T/C [23]: 37.8%
viability, T/C [24]: 30.5%
viability, T/C [25]: 83.8%
viability, T/C [26]: 83.3%
viability, T/C [27]: 81.7%
viability, T/C [28]: 52.6%
viability, T/C [29]: 44.2%
viability, T/C [30]: 31.1%
viability, T/C [31]: 88.2%
viability, T/C [32]: 82.8%
viability, T/C [33]: 61.6%
viability, T/C [34]: 44%
viability, T/C [35]: 46.3%
viability, T/C [36]: 34.1%
